From patent publication EP4660182A1, “NAV1.7- AND/OR NAV1.8-INHIBITING ARYL PYRIDINE COMPOUNDS, PROCESSES FOR THE PREPARATION THEREOF, COMPOSITIONS, USES, METHODS FOR TREATMENT USING SAME, AND KITS” (Eurofarma Laboratórios S.A., priority 2023, dated 2024)

Assays:
[1] = molecular target: T1, human sodium channels Nav 1.8 (Homo sapiens, UniProt Q9Y5Y9); experiment: Automated whole-cell voltage-clamp (ScreenPatch 384P) sodium current block, Nav 1.8; type: cell-based; details: CHO cells stably expressing human Nav 1.8; inactivation step -40 mV 8 s, test step 10 mV (TP1A); eight concentrations; exposure at least five minutes; room temperature; read-out: Nav1.8 IC50
T1 construct: expressed in transfected cells
T1 sequence (Q9Y5Y9 whole entry): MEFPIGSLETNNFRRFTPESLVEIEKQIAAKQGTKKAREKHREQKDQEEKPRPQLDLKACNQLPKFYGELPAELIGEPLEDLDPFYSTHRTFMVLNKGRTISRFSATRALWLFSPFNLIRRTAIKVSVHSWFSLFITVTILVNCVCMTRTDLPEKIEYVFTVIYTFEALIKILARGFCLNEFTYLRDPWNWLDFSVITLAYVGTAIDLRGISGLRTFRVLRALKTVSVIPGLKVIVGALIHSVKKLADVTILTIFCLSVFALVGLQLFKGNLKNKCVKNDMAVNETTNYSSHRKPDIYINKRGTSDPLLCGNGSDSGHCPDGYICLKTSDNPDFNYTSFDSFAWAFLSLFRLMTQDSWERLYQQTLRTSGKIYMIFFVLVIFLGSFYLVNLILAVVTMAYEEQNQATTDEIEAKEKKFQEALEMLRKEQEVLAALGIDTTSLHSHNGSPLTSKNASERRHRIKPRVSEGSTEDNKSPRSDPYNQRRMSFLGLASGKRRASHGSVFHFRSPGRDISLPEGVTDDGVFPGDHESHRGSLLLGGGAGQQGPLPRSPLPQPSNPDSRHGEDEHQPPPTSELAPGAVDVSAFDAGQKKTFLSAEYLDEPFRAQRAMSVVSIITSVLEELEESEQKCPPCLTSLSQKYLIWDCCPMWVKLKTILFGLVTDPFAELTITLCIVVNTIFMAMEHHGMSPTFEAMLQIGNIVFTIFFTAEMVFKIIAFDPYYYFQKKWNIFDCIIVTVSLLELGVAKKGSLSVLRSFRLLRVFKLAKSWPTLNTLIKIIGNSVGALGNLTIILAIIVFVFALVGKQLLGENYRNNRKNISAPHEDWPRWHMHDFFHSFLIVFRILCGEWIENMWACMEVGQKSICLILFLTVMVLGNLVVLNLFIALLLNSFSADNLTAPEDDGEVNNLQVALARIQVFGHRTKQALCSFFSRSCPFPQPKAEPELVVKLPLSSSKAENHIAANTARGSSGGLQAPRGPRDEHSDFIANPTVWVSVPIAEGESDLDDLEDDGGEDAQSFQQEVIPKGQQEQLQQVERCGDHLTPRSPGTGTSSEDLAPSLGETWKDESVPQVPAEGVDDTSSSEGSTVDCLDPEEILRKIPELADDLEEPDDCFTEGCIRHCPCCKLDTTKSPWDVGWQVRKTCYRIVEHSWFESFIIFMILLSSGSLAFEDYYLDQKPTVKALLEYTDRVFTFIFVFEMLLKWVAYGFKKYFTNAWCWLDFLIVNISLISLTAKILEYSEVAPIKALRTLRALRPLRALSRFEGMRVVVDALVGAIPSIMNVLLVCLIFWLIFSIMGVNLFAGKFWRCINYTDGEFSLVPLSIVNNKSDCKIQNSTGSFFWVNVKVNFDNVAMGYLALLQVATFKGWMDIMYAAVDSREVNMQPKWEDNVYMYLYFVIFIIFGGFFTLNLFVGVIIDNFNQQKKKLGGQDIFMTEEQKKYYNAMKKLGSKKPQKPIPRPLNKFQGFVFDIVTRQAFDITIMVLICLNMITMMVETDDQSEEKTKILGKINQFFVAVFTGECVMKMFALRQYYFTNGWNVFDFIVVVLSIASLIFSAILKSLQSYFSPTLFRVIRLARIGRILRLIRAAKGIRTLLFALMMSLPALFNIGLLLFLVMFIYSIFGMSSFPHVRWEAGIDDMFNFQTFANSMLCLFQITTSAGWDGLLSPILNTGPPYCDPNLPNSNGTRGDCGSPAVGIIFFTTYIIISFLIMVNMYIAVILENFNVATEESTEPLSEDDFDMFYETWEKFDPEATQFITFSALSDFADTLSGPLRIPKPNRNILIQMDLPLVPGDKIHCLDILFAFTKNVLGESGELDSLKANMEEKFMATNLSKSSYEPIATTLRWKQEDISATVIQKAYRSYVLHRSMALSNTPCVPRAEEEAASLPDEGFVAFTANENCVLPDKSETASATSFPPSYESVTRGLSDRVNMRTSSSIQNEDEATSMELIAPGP
Outline: (§1)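 Stable CHO lines, whole-cell automated patch clamp at room temperature, ≥5 min exposure, eight concentrations. From -100 mV hold, 8 s at -40 mV, 20 ms at -100 mV, then test pulse to 10 mV (Nav 1.8) or 0 mV (Nav 1.7) at 0.05 Hz; peak-current % block fitted for IC50, averaged over repeats.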

[2] = molecular target: T2, human sodium channels Nav 1.7 (Homo sapiens, UniProt Q15858); experiment: Automated whole-cell voltage-clamp (ScreenPatch 384P) sodium current block, Nav 1.7; type: cell-based; details: CHO cells stably expressing human Nav 1.7; inactivation step -40 mV 8 s, test step 0 mV (TP1A); eight concentrations; exposure at least five minutes; room temperature; read-out: Nav1.7 IC50
T2 construct: expressed in transfected cells
T2 sequence (Q15858 whole entry): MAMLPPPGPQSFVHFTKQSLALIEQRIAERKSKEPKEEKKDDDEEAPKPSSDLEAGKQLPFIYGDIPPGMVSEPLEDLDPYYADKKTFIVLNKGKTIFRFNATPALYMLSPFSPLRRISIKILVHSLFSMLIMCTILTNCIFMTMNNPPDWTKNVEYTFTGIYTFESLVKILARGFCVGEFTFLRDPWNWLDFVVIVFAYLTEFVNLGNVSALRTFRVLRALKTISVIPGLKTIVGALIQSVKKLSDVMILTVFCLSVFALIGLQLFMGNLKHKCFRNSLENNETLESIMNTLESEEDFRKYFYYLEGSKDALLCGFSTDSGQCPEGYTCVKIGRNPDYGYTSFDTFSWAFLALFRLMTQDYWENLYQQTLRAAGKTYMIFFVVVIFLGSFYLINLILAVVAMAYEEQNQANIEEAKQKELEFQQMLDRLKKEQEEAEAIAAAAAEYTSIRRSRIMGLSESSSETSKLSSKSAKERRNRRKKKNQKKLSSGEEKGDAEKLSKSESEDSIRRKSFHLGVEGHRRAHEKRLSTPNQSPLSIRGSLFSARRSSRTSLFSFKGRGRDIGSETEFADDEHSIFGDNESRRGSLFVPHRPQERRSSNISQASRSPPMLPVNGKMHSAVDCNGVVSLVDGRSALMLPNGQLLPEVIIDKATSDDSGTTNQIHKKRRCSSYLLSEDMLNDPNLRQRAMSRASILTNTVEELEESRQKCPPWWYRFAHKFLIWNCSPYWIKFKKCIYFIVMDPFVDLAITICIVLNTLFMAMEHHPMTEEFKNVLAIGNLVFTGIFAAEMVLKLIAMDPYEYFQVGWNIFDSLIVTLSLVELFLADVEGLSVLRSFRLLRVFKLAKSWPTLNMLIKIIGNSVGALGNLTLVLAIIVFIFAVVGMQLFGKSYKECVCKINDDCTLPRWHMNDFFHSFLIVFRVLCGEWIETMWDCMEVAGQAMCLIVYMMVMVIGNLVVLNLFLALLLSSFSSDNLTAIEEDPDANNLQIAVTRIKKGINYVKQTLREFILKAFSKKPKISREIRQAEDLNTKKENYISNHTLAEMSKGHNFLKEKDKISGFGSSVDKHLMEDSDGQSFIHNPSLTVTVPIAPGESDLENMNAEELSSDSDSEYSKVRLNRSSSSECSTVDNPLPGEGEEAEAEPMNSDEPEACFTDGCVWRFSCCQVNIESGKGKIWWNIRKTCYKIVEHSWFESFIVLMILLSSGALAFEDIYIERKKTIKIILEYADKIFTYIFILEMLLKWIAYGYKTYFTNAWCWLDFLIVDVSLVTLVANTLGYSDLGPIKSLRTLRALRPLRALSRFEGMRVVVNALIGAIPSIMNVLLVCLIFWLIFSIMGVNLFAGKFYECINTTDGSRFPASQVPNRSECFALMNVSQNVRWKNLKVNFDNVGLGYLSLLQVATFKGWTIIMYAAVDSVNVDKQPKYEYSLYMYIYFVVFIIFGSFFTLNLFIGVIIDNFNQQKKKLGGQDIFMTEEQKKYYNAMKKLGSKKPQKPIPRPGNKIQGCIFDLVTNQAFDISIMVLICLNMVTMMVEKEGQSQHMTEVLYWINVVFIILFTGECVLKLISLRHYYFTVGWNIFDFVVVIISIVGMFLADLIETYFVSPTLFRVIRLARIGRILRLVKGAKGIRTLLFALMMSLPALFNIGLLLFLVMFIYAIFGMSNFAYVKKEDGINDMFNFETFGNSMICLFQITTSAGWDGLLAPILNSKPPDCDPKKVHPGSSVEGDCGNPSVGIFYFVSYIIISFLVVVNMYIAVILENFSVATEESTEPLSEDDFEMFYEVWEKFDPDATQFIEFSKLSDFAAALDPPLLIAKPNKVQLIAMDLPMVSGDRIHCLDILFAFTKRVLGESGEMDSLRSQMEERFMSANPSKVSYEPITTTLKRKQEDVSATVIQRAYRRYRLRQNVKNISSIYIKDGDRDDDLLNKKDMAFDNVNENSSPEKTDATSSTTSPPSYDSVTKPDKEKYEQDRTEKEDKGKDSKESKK
Outline: as §1

COc1ccc(F)c(/C=N/NC(=O)c2cncc(-c3ccc(OCCO)nc3)n2)c1 [Compound 137, (E)-N'-(2-fluoro-5-methoxybenzylidene)-6-(6-(2-hydroxyethoxy)pyridine-3-yl)pyrazine-2-carbohydrazide]
IC50 [1]: > 1000 nM | IC50 [2]: > 1000 nM

CCOc1ccc(-c2cncc(C(=O)N/N=C/c3cc(S(N)(=O)=O)ccc3F)n2)cn1 [Compound 14, (E)-3-((2-(6-(6-ethoxypyridine-3-yl)pyrazine-2-carbonyl)hydrazinylidene)methyl)-4-fluorobenzenesulfonamide]
IC50 [1]: > 1000 nM | IC50 [2]: > 1000 nM

CCOc1ccc(-c2cncc(C(=O)N/N=C/c3cc(OC)ccn3)n2)cn1 [Compound 9, (E)-6-(6-ethoxypyridine-3-yl)-N'-((4-methoxypyridine-2-yl)methylene)pyrazine-2-carbohydrazide]
IC50 [1]: < 500 nM | IC50 [2]: > 1000 nM

CCOc1ccc(-c2nc(C(=O)N/N=C/c3cc(OC)ccc3F)cnc2O)cn1 [Compound 66, (E)-6-(6-ethoxypyridine-3-yl)-N'-(2-fluoro-5-methoxybenzylidene)-5-hydroxypyrazine-2-carbohydrazide]
IC50 [1]: > 1000 nM | IC50 [2]: > 1000 nM

CCOc1ccc(-c2cncc(C(=O)N/N=C/c3occc3OC)n2)cn1 [Compound 55, (E)-6-(6-ethoxypyridine-3-yl)-N'-((3-methoxyfuran-2-yl)methylene)pyrazine-2-carbohydrazide]
IC50 [1]: > 1000 nM | IC50 [2]: > 1000 nM

COc1ccc(F)c(/C=N/NC(=O)c2cncc(-c3cnc4nc[nH]c4c3)n2)c1 [Compound 166, (E)-N'-(2-fluoro-5-methoxybenzylidene)-6-(1H-imidazo[4,5-b]pyridine-6-yl) pyrazine-2-carbohydrazide]
IC50 [1]: > 1000 nM | IC50 [2]: > 1000 nM

COc1cnc(F)c(/C=N/NC(=O)c2ccnc(-c3ccc(OC(F)F)nc3)n2)c1 [Compound 126, (E)-2-(6-(difluoromethoxy)pyridine-3-yl)-N'-((2-fluoro-5-methoxypyridine-3-yl)methylene) pyrimidine-4-carbohydrazide]
IC50 [1]: 500 to 1000 nM | IC50 [2]: > 1000 nM

COc1ccc(F)c(/C=N/NC(=O)c2cncc(-c3ccc(OC(F)F)nc3)n2)c1 [Compound 100, (E)-6-(6-(difluoromethoxy)pyridine-3-yl)-N'-(2-fluoro-5-methoxybenzylidene) pyrazine-2-carbohydrazide]
IC50 [1]: < 500 nM | IC50 [2]: 500 to 1000 nM

CCOc1ccc(-c2cncc(C(=O)N/N=C/c3cc(OC(C)C)ccc3F)n2)cn1 [Compound 5, (E)-6-(6-ethoxypyridine-3-yl)-N'-(2-fluoro-5-isopropoxybenzylidene)pyrazine-2-carbohydrazide]
IC50 [1]: < 500 nM | IC50 [2]: < 500 nM

CCOc1ccc(-c2cncc(C(=O)N/N=C/c3ccnn3C)n2)cn1 [Compound 51, (E)-6-(6-ethoxypyridine-3-yl)-N'-((1-methyl-1H-pyrazole-5-yl)methylene)pyrazine-2-carbohydrazide]
IC50 [1]: > 1000 nM | IC50 [2]: > 1000 nM

CCOc1ccc(-c2cncc(C(=O)N/N=C/c3cc(N4CCC4)ccc3F)n2)cn1 [Compound 38, (E)-N'-(5-(azetidin-1-yl)-2-fluorobenzylidene)-6-(6-ethoxypyridine-3-yl)pyrazine-2-carbohydrazide]
IC50 [1]: < 500 nM | IC50 [2]: > 1000 nM

COc1ccc(F)c(/C=N/NC(=O)c2cncc(-c3ccc(OCC4CNC4)nc3)n2)c1 [Compound 140, (E)-6-(6-(azetidin-3-ylmethoxy)pyridine-3-yl)-N'-(2-fluoro-5-methoxybenzylidene) pyrazine-2-carbohydrazide]
IC50 [1]: > 1000 nM | IC50 [2]: > 1000 nM

COc1ccc(F)c(/C=N/NC(=O)c2cncc(-c3ccc(OCC(C)O)nc3)n2)c1 (centres unmarked) [Compound 138, (E)-N'-(2-fluoro-5-methoxybenzylidene)-6-(6-(2-hydroxypropoxy)pyridine-3-yl) pyrazine-2-carbohydrazide]
IC50 [1]: > 1000 nM | IC50 [2]: > 1000 nM

CCOc1ccc(-c2cncc(C(=O)N/N=C/c3cncn3C(C)C)n2)cn1 [Compound 53, (E)-6-(6-ethoxypyridine-3-yl)-N'-((1-isopropyl-1H-imidazole-5-yl)methylene)pyrazine-2-carbohydrazide]
IC50 [1]: > 1000 nM | IC50 [2]: > 1000 nM

CCOc1ccc(-c2cncc(C(=O)N/N=C/c3cc(OC4CN(C)C4)ccc3F)n2)cn1 [Compound 39, (E)-6-(6-ethoxypyridine-3-yl)-N'-(2-fluoro-5-((1-methylazetidine-3-yl)oxy)benzylidene) pyrazine-2-carbohydrazide]
IC50 [1]: > 1000 nM | IC50 [2]: > 1000 nM

Cc1ccccc1/C=N/NC(=O)c1cncc(-c2ccc(OC(F)(F)F)nc2)n1 [Compound 88, (E)-N'-(2-methylbenzylidene)-6-(6-(trifluoromethoxy)pyridine-3-yl)pyrazine-2-carbohydrazide]
IC50 [1]: < 500 nM | IC50 [2]: < 500 nM

[2H]C([2H])([2H])C([2H])([2H])Oc1ccc(-c2cncc(C(=O)N/N=C/c3cc(OC)cnc3F)n2)cn1 [Compound 170, (E)-6-(6-(ethoxy-d5)pyridine-3-yl)-N'-((2-fluoro-5-methoxypyridine-3-yl)methylene) pyrazine-2-carbohydrazide]
IC50 [1]: < 500 nM | IC50 [2]: > 1000 nM

CCOc1ccc(-c2cncc(C(=O)N/N=C/c3[nH]ccc3C#N)n2)cn1 [Compound 59, (E)-N'-((3-cyano-1H-pyrrole-2-yl)methylene)-6-(6-ethoxypyridine-3-yl)pyrazine-2-carbohydrazide]
IC50 [1]: > 1000 nM | IC50 [2]: > 1000 nM

CCOc1ccc(-c2cncc(C(=O)N/N=C/c3nc(OC)ccc3F)n2)cn1 [Compound 15, (E)-6-(6-ethoxypyridine-3-yl)-N'-((3-fluoro-6-methoxypyridine-2-yl)methylene)pyrazine-2-carbohydrazide]
IC50 [1]: < 500 nM | IC50 [2]: > 1000 nM

[2H]C([2H])([2H])Oc1cnc(F)c(/C=N/NC(=O)c2cncc(-c3ccc(OCC)nc3)n2)c1 [Compound 171, (E)-6-(6-ethoxypyridine-3-yl)-N'-((2-fluoro-5-(methoxy-d3)pyridine-3-yl)methylene) pyrazine-2-carbohydrazide]
IC50 [1]: < 500 nM | IC50 [2]: > 1000 nM

CCOc1ccc(-c2cncc(C(=O)N/N=C/c3cccc(C(C)O)c3)n2)cn1 (centres unmarked) [Compound 22, (E)-6-(6-ethoxypyridine-3-yl)-N'-(3-(1-hydroxyethyl)benzylidene)pyrazine-2-carbohydrazide]
IC50 [1]: 500 to 1000 nM | IC50 [2]: > 1000 nM

CCOc1ccc(-c2cncc(C(=O)N/N=C/c3cc(N(C)C)ccc3F)n2)cn1 [Compound 11, (E)-N'-(5-(dimethylamino)-2-fluorobenzylidene)-6-(6-ethoxypyridine-3-yl)pyrazine-2-carbohydrazide]
IC50 [1]: < 500 nM | IC50 [2]: > 1000 nM

CCOc1ncc(-c2cncc(C(=O)N/N=C/c3cc(OC)cnc3F)n2)cc1O [Compound 157, (E)-6-(6-ethoxy-5-hydroxypyridine-3-yl)-N'-((2-fluoro-5-methoxypyridine-3-yl)methylene) pyrazine-2-carbohydrazide]
IC50 [1]: 500 to 1000 nM | IC50 [2]: > 1000 nM

CCOc1ccc(-c2cncc(C(=O)N/N=C/c3cc(OC4CCC4)cnc3F)n2)cn1 [Compound 36, (E)-N'-((5-cyclobutoxy-2-fluoropyridine-3-yl)methylene)-6-(6-ethoxypyridine-3-yl)pyrazine-2-carbohydrazide]
IC50 [1]: < 500 nM | IC50 [2]: > 1000 nM

COc1ccc(F)c(/C=N/NC(=O)c2cncc(-c3ccc(OCC(C)N)nc3)n2)c1 (centres unmarked) [Compound 136, (E)-6-(6-(2-aminopropoxy)pyridine-3-yl)-N'-(2-fluoro-5-methoxybenzylidene) pyrazine-2-carbohydrazide]
IC50 [1]: > 1000 nM | IC50 [2]: > 1000 nM

CCOc1ccc(-c2cnc(O)c(C(=O)N/N=C/c3cc(OC)ccc3F)n2)cn1 [Compound 68, (E)-6-(6-ethoxypyridine-3-yl)-N'-(2-fluoro-5-methoxybenzylidene)-3-hydroxypyrazine-2-carbohydrazide]
IC50 [1]: > 1000 nM | IC50 [2]: > 1000 nM

CCOc1ccc(-c2cncc(C(=O)N/N=C/c3cc(OC4CNC4)cnc3F)n2)cn1 [Compound 34, (E)-N'-((5-(azetidin-3-yloxy)-2-fluoropyridine-3-yl)methylene)-6-(6-ethoxypyridine-3-yl) pyrazine-2-carbohydrazide]
IC50 [1]: > 1000 nM | IC50 [2]: > 1000 nM

CCOc1ccc(-c2cncc(C(=O)N/N=C/c3cc(OC)cnc3F)n2)cn1 [Compound 7, (E)-6-(6-ethoxypyridine-3-yl)-N'-((2-fluoro-5-methoxypyridine-3-yl)methylene)pyrazine-2-carbohydrazide]
IC50 [1]: < 500 nM | IC50 [2]: > 1000 nM

O=C(N/N=C/c1ccncc1)c1cncc(-c2ccc(OC(F)(F)F)nc2)n1 [Compound 87, (E)-N'-(pyridine-4-ylmethylene)-6-(6-(trifluoromethoxy)pyridine-3-yl)pyrazine-2-carbohydrazide]
IC50 [1]: > 1000 nM | IC50 [2]: > 1000 nM

COc1ccc(F)c(/C=N/NC(=O)c2cncc(-c3ccc(OCCN)nc3)n2)c1 [Compound 135, (E)-6-(6-(2-aminoethoxy)pyridine-3-yl)-N'-(2-fluoro-5-methoxybenzylidene) pyrazine-2-carbohydrazide]
IC50 [1]: > 1000 nM | IC50 [2]: > 1000 nM

COc1ccc(O)c(/C=N/NC(=O)c2cncc(-c3ccc(OC(F)F)nc3)n2)c1 [Compound 120, (E)-6-(6-(difluoromethoxy)pyridine-3-yl)-N'-(2-hydroxy-5-methoxybenzylidene)pyrazine-2-carbohydrazide]
IC50 [1]: > 1000 nM | IC50 [2]: > 1000 nM
